# Measurements: patent US10287269B2, “Pyrazolyl pyrimidinone compounds as PDE2 inhibitors” (Merck Sharp & Dohme Corp., priority 2015, dated 2019)
# Molecular target: T1, human PDE2A1 (Homo sapiens, UniProt O00408)
# T1 construct: GST; purchased BPS Bioscience (San Diego, Calif.) 60020; host or cells: insect cells
# Assay: PDE2 IMAP FP inhibition assay, human enzyme (PDE selectivity panel format)
# Assay type: biochemical
# Conditions: Lab A; read-out: Human PDE2 Ki (nM) Lab A
# Description: Selectivity for PDE2, as compared to other PDE families, was assessed using the IMAP® technology. Human PDE10A2 enzyme was prepared from cytosolic fractions of transiently transfected HEK cells. All other PDE's were GST Tag human enzyme expressed in insect cells and were obtained from BPS Bioscience (San Diego, Calif.): PDE1A (Cat#60010), human PDE2A1 (Cat#60020), PDE3A (Cat#60030), PDE4A1A (Cat#60040), PDE5A1 (Cat#60050), PDE6C (Cat#60060), PDE7A (Cat#60070), PDE8A1 (Cat#60080), PDE9A2 (Cat#60090), PDE11A4 (Cat#60110).
# Assays for PDE 1 through 11 were performed in parallel at room temperature in 384-well microtiter plates with an incubation volume of 20.2 μL. Solutions of test compounds were prepared in DMSO and serially diluted with DMSO to yield 30 μL of each of ten solutions differing by 3-fold in concentration, at 32 serial dilutions per plate. […] A Labcyte POD 810 (Labcyte, Sunnyvale, Calif.) was used to dispense 200 nL from each well of the titration plate to make eleven copies of the assay plate for each titration, one copy for each PDE enzyme. A solution of each enzyme (dilution from aliquots, sufficient to produce 20% substrate conversion) and a separate solution of FAM-labeled cAMP or FAM-labeled cGMP from Molecular Devices (Sunnyvale, Calif., product # R7506 or cGMP#R7508), at a final concentration of 50 nM were made in the assay buffer (10 mM Tris HCl, pH 7.2, 10 mM MgCl2, 0.05% NaN3 0.01% Tween-20, and 1 mM DTT). Note that the substrate for PDE2 is 50 nM FAM cAMP containing 1000 nM of cGMP. The enzyme and the substrate were then added to the assay plates in two consecutive additions of 10 μL and then shaken to mix. The reaction was allowed to proceed at room temperature for 60 minutes. A binding solution was then made from the kit components, comprised of 80% Solution A, 20% Solution B and binding reagent at a volume of 1/600 the total binding solution. The enzymatic reaction was stopped by addition of 60 μL of the binding solution to each well of the assay plate. The plates were sealed and shaken for 10 seconds. The plates were incubated at room temperature for one hour, then the parallel and perpendicular fluorescence was measured using a Tecan Genios Pro plate reader (Tecan, Switzerland). The apparent inhibition constants for the compounds against all 11 PDE's was determined from the parallel and perpendicular fluorescent readings as described for PDE10 FP assay using the following apparent KM values for each enzyme and substrate combination: PDE1A (FAM cGMP) 70 nM, human PDE2A1 (FAM cAMP) 10,000 nM, PDE3A (FAM cAMP) 50 nM, PDE4A1A (FAM cAMP) 1500 nM, PDE5A1 (FAM cGMP) 400 nM, PDE6C (FAM cGMP) 700 nM, PDE7A (FAM cAMP) 150 nM, PDE8A1 (FAM cAMP) 50 nM, PDE9A2 (FAM cGMP) 60 nM, PDE10A2 (FAM cAMP) 150 nM, PDE11A4 (FAM cAMP) 1000 nM. The intrinsic PDE2 inhibitory activity of a compound which may be used in accordance with the present invention may be determined by these assays. […]
# T1 sequence (O00408 1-920 isoform O00408-2): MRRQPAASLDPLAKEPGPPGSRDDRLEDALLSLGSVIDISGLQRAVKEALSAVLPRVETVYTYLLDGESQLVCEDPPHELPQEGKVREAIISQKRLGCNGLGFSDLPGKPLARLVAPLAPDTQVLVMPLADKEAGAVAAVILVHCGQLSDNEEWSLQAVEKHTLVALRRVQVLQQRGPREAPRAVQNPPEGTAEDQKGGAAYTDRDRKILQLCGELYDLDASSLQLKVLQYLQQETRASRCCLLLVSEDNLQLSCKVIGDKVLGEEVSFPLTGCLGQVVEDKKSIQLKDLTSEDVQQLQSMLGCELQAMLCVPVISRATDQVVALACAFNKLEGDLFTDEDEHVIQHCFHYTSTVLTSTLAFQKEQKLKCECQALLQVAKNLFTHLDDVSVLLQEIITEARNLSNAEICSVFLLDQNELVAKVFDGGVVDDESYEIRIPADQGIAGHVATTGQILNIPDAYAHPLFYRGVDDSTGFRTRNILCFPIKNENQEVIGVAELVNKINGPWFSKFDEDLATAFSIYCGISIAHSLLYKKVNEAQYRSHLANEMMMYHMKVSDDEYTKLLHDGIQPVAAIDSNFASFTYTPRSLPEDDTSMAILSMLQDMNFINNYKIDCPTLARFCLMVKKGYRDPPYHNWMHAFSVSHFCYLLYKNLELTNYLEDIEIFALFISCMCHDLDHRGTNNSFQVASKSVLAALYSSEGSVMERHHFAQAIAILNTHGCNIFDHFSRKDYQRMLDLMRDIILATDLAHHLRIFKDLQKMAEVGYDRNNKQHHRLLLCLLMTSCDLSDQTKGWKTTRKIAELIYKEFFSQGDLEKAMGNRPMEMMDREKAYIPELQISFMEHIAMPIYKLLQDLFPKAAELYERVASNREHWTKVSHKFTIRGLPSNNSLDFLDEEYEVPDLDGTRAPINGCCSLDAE
row,SMILES,Ki
1,"CCc1ccc([C@](C)(O)c2cnn(-c3cc(=O)[nH]c(C)n3)c2)c(F)c1 (single isomer, unassigned) [Example 11]",42.5 nM
2,"CCc1ccc([C@](C)(O)c2cnn(-c3cc(=O)[nH]c(C)n3)c2)c(F)c1 (single isomer, unassigned) [Example 12]",244 nM
3,"CCCc1ccc([C@](C)(O)c2cnn(-c3cc(=O)[nH]c(C)n3)c2)c(F)c1 (single isomer, unassigned) [Example 13]",287 nM
4,"CCCc1ccc([C@](C)(O)c2cnn(-c3cc(=O)[nH]c(C)n3)c2)c(F)c1 (single isomer, unassigned) [Example 14]",1400 nM
5,"CCc1ccc([C@@H](CO)n2cc(-c3cc(=O)[nH]c(C)n3)cn2)c(Cl)c1 (single isomer, unassigned) [Example 17]",683 nM
6,"CCc1ccc([C@@H](CO)n2cc(-c3cc(=O)[nH]c(C)n3)cn2)c(Cl)c1 (single isomer, unassigned) [Example 18]",10.7 nM

# Now from value to molecule:
row,Ki,SMILES
1,126 nM,"Cc1nc(-c2cnn([C@H](C)c3c(F)cc(C(F)(F)F)cc3F)c2)cc(=O)[nH]1 (single isomer, unassigned) [Example 7]"
2,107 nM,"Cc1nc(-c2cnn([C@H](C)c3c(F)cc(C(F)(F)F)cc3F)c2)cc(=O)[nH]1 (single isomer, unassigned) [Example 8]"
3,32.6 nM,"Cc1nc(-c2cn(C(C)c3ccc(C(F)(F)F)cc3F)nc2C)cc(=O)[nH]1 (single isomer, unassigned) [Example 69, (R)- or (S)-(6-(1-(1-(2-fluoro-4-(trifluoromethyl)phenyl)ethyl)-3-methyl-1H-pyrazol-4-yl)-2-methylpyrimidin-4(3H)-one]"
4,312 nM,"Cc1nc(-c2cn(C(C)c3ccc(C(F)(F)F)cc3F)nc2C)cc(=O)[nH]1 (single isomer, unassigned) [Example 70, (S)- or (R)-(6-(1-(1-(2-fluoro-4-(trifluoromethyl)phenyl)ethyl)-3-methyl-1H-pyrazol-4-yl)-2-methylpyrimidin-4(3H)-one]"
5,16.5 nM,"Cc1nc(-c2cnn(C(C)c3ccc(C(F)(F)F)cc3F)c2C)cc(=O)[nH]1 (single isomer, unassigned) [Example 71, (R)- or (S)-6-(1-(1-(2-fluoro-4-(trifluoromethyl)phenyl)ethyl)-5-methyl-1H-pyrazol-4-yl)-2-methylpyrimidin-4(3H)-one]"
6,412 nM,"Cc1nc(-c2cnn(C(C)c3ccc(C(F)(F)F)cc3F)c2C)cc(=O)[nH]1 (single isomer, unassigned) [Example 72, (S)- or (R)-6-(1-(1-(2-fluoro-4-(trifluoromethyl)phenyl)ethyl)-5-methyl-1H-pyrazol-4-yl)-2-methylpyrimidin-4(3H)-one]"
7,> 2960 nM,"Cc1nc(-c2cnn(C(C)c3ccc(CC(F)(F)F)cc3C)c2)cc(=O)[nH]1 (single isomer, unassigned) [Example 105, (R)- or (S)-2-methyl-6-(1-(1-(2-methyl-4-(2,2,2-trifluoroethyl)phenyl)ethyl)-1H-pyrazol-4-yl)pyrimidin-4(3H)-one]"
8,710 nM,"Cc1nc(-c2cnn(C(C)c3ccc(CC(F)(F)F)cc3C)c2)cc(=O)[nH]1 (single isomer, unassigned) [Example 106, (S)- or (R)-2-methyl-6-(1-(1-(2-methyl-4-(2,2,2-trifluoroethyl)phenyl)ethyl)-1H-pyrazol-4-yl)pyrimidin-4(3H)-one]"
9,9.4 nM,"Cc1nc(-c2cnn(C(C)c3ccc(C4CC4)cc3Cl)c2)cc(=O)[nH]1 (single isomer, unassigned) [Example 107, (R)- or (S)-6-(1-(1-(2-chloro-4-cyclopropylphenyl)ethyl)-1H-pyrazol-4-yl)-2-methylpyrimidin-4(3H)-one]"

# Molecular target: T2, Rhesus PDE2A3 (Macaca mulatta, UniProt B3VTJ2)
# T2 construct: made in house; host or cells: AD293 cells, transient transfection, pcDNA3.3-TOPO; lysate supernatant used as enzyme
# T2 sequence (B3VTJ2 1-941): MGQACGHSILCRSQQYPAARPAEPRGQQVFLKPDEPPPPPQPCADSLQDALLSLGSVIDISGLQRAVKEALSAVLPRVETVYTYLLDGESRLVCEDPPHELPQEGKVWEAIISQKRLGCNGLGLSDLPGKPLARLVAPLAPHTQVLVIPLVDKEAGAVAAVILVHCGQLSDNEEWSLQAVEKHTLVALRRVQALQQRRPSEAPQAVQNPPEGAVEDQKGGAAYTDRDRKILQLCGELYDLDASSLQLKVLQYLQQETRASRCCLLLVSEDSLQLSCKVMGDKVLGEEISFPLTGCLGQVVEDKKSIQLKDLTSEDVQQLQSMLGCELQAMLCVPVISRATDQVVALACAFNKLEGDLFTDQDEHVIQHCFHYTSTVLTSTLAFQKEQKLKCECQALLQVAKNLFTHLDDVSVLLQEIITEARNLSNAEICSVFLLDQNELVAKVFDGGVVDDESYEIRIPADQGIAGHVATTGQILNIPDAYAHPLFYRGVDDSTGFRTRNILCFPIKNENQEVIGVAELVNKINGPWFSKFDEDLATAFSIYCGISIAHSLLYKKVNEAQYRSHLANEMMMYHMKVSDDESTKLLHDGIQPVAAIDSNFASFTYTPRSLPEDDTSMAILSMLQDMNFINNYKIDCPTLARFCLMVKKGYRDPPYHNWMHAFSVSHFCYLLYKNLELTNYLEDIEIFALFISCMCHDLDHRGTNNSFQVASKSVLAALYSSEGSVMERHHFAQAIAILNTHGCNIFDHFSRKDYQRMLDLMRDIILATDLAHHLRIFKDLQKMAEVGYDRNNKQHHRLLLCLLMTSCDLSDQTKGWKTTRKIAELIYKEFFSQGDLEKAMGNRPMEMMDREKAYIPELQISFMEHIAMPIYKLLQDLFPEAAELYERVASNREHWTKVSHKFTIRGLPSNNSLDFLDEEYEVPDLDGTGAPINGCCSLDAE
# Assay: PDE2 fluorescence polarization (IMAP FP) inhibition assay, rhesus enzyme
# Assay type: biochemical, rhesus macaque
# Conditions: Lab B; read-out: Rhesus PDE2 Ki (nM) Lab B
# How it was run: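 Lysate of AD293 cells transiently expressing rhesus PDE2A3, diluted for ~20% substrate conversion, with 50 nM FAM-cAMP and 1 uM cGMP activator in pH 7.2 Tris/MgCl2 buffer, 60 min at room temperature.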
row,SMILES,Ki
1,"Cc1ccc(C(C)n2ccc(-c3cc(=O)[nH]c(C)n3)n2)cc1 (stereo not drawn) [Example 157, 2-methyl-6-(1-(1-(p-tolyl)ethyl)-1H-pyrazol-3-yl)pyrimidin-4(3H)-one]",48700 nM
2,"Cc1nc(-c2ccn(C(C)c3ccccc3)n2)cc(=O)[nH]1 (stereo not drawn) [Example 158, 2-methyl-6-(1-(1-phenylethyl)-1H-pyrazol-3-yl)pyrimidin-4(3H)-one]",18500 nM
3,"CCCC(c1ccc(C(F)(F)F)cc1)n1ccc(-c2cc(=O)[nH]c(C)n2)n1 (stereo not drawn) [Example 160, 2-methyl-6-(1-(1-(4-(trifluoromethyl)phenyl)butyl)-1H-pyrazol-3-yl)pyrimidin-4(3H)-one]",2300 nM
4,"Cc1nc(-c2ccn(C(C)c3ccc(F)cc3)n2)cc(=O)[nH]1 (stereo not drawn) [Example 161, 6-(1-(1-(4-fluorophenyl)ethyl)-1H-pyrazol-3-yl)-2-methylpyrimidin-4(3H)-one]",13900 nM
5,"COC(=O)c1ccc(C(C)n2ccc(-c3cc(=O)[nH]c(C)n3)n2)cc1 (stereo not drawn) [Example 162, methyl 4-(1-(3-(2-methyl-6-oxo-1,6-dihydropyrimidin-4-yl)-1H-pyrazol-1-yl)ethyl)benzoate]",29800 nM

# Further lines, results first:
row,Ki,SMILES
1,4130 nM,"Cc1nc(-c2cnn(C(C)c3ccc(F)cc3)c2)cc(=O)[nH]1 (stereo not drawn) [Example 152, 6-(1-(1-(4-fluorophenyl)ethyl)-1H-pyrazol-4-yl)-2-methylpyrimidin-4(3H)-one]"
2,3830 nM,"COC(=O)c1ccc(C(C)n2cc(-c3cc(=O)[nH]c(C)n3)cn2)cc1 (stereo not drawn) [Example 155, methyl 4-(1-(4-(2-methyl-6-oxo-1,6-dihydropyrimidin-4-yl)-1H-pyrazol-1-yl)ethyl)benzoate]"
3,4890 nM,"Cc1nc(-c2cnn(C(C)c3ccccc3)c2)cc(=O)[nH]1 (stereo not drawn) [Example 156, 2-methyl-6-(1-(1-phenylethyl)-1H-pyrazol-4-yl)pyrimidin-4(3H)-one]"
4,25700 nM,"Cc1nc(-c2ccn(C(C)c3cccc(C(F)(F)F)c3)n2)cc(=O)[nH]1 (stereo not drawn) [Example 159, 2-methyl-6-(1-(1-(3-(trifluoromethyl)phenyl)ethyl)-1H-pyrazol-3-yl)pyrimidin-4(3H)-one]"
